Measurements: PubChem BioAssay (NCI)
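Compound exposure: 48 hours, 5 concentrations, 96-well plates. TGI: concentration producing complete growth inhibition.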

Assays:
Assay in all cases: DTP human tumour cell line panel, 48 h
786-0 renal = tested on: 786-0 renal
A498 renal = tested on: A498 renal
A549 NSCLC = tested on: A549 NSCLC
ACHN renal = tested on: ACHN renal
CAKI-1 renal = tested on: CAKI-1 renal
CCRF-CEM leukemia = tested on: CCRF-CEM leukemia
COLO 205 colon = tested on: COLO 205 colon
DLD-1 colon = tested on: DLD-1 colon
DMS 114 small cell lung = tested on: DMS 114 small cell lung
DMS 273 small cell lung = tested on: DMS 273 small cell lung
EKVX NSCLC = tested on: EKVX NSCLC
HCC-2998 colon = tested on: HCC-2998 colon
HCT-15 colon = tested on: HCT-15 colon
HOP-18 NSCLC = tested on: HOP-18 NSCLC
HOP-62 NSCLC = tested on: HOP-62 NSCLC
HOP-92 NSCLC = tested on: HOP-92 NSCLC
HT29 colon = tested on: HT29 colon
IGROV1 ovarian = tested on: IGROV1 ovarian
K-562 leukemia = tested on: K-562 leukemia
KM12 colon = tested on: KM12 colon
KM20L2 colon = tested on: KM20L2 colon
LOX IMVI melanoma = tested on: LOX IMVI melanoma
LXFL 529 NSCLC = tested on: LXFL 529 NSCLC
M14 melanoma = tested on: M14 melanoma
M19-MEL melanoma = tested on: M19-MEL melanoma
MALME-3M melanoma = tested on: MALME-3M melanoma
MOLT-4 leukemia = tested on: MOLT-4 leukemia
NCI-H226 lung = tested on: NCI-H226 lung
NCI-H23 lung = tested on: NCI-H23 lung
NCI-H460 lung = tested on: NCI-H460 lung
NCI-H522 lung = tested on: NCI-H522 lung
OVCAR-3 ovarian = tested on: OVCAR-3 ovarian
OVCAR-4 ovarian = tested on: OVCAR-4 ovarian
OVCAR-8 ovarian = tested on: OVCAR-8 ovarian
RPMI-8226 leukemia = tested on: RPMI-8226 leukemia
RXF 393 renal = tested on: RXF 393 renal
RXF-631 renal = tested on: RXF-631 renal
SF-268 CNS = tested on: SF-268 CNS
SF-295 CNS = tested on: SF-295 CNS
SF-539 CNS = tested on: SF-539 CNS
SK-MEL-2 melanoma = tested on: SK-MEL-2 melanoma
SK-MEL-28 melanoma = tested on: SK-MEL-28 melanoma
SK-MEL-5 melanoma = tested on: SK-MEL-5 melanoma
SK-OV-3 ovarian = tested on: SK-OV-3 ovarian
SN12C renal = tested on: SN12C renal
SNB-19 CNS = tested on: SNB-19 CNS
SNB-75 CNS = tested on: SNB-75 CNS
SNB-78 CNS = tested on: SNB-78 CNS
SR leukemia = tested on: SR leukemia
SW-620 colon = tested on: SW-620 colon
TK-10 renal = tested on: TK-10 renal
U251 CNS = tested on: U251 CNS
UACC-257 melanoma = tested on: UACC-257 melanoma
UACC-62 melanoma = tested on: UACC-62 melanoma
UO-31 renal = tested on: UO-31 renal
HCT-116 colon = tested on: HCT-116 colon
HL-60(TB) leukemia = tested on: HL-60(TB) leukemia
OVCAR-5 ovarian = tested on: OVCAR-5 ovarian
XF 498 CNS = tested on: XF 498 CNS

Measured: TGI

CC(=O)OC1COC(Nc2ccc(C(C)=O)cc2)C(OC(C)=O)C1OC(C)=O (configuration not stated)
not listed: HCT-116 colon | HL-60(TB) leukemia | OVCAR-5 ovarian | XF 498 CNS
> 100 µM: all other assays above

NC(=O)C(N)=O
not listed: CAKI-1 renal | HT29 colon | IGROV1 ovarian | NCI-H226 lung | OVCAR-4 ovarian | RXF-631 renal | SNB-75 CNS
> 100 µM: all other assays above

N#C/C(=C/c1ccc[nH]1)P(=O)(O)O
not listed: A498 renal | HOP-18 NSCLC | IGROV1 ovarian | RXF-631 renal
> 100 µM: all other assays above

CCOC(=O)C12CCC(=O)C=C1[C@@H](C)C(=O)CC2 (some centres not stated)
not listed: 786-0 renal | A498 renal | A549 NSCLC | CAKI-1 renal | CCRF-CEM leukemia | HOP-18 NSCLC | K-562 leukemia | MOLT-4 leukemia | NCI-H522 lung | OVCAR-4 ovarian | RXF-631 renal | SF-539 CNS | SNB-19 CNS | SNB-78 CNS
> 100 µM: all other assays above
